How the values were obtained:
XIAP BIR3 = target: T1, XIAP BIR3 (Homo sapiens, UniProt P98170); test: XIAP BIR3 binding assay (DELFIA), displacement of SMAC peptide; conditions: GST-fusion BIR3 domain (aa 241 to 356) 10 nM, SMAC peptide 10 nM; activity of the (S)-isomers
T1 construct: covering amino acids 241 to 356; XIAP BIR3; made in house; host or cells: E. coli
Summary of the method: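 Each BIR3 domain (10 nM) incubated with biotinylated N-terminal SMAC peptide (10 nM) and compound for 1 h at room temp in Tris/NaCl buffer with BSA, DTT and Triton X-100. Captured on streptavidin plates; bound BIR3 detected by Eu-labelled anti-GST time-resolved fluorescence, giving IC50 values.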

cIAP1 BIR3 = target: T2, cIAP1 BIR3 (Homo sapiens, UniProt Q13490); test: cIAP1 BIR3 binding assay (DELFIA), displacement of SMAC peptide; conditions: GST-fusion BIR3 domain (aa 256 to 363) 10 nM, SMAC peptide 10 nM; activity of the (S)-isomers
T2 construct: covering amino acids 256 to 363; cIAP1 BIR3; made in house; host or cells: E. coli
Protocol: Biological Methods XIAP BIR3 and cIAP1 BIR3 Binding Assays (DELFIA)
Peptide […]-Lys(Biotin), representing the N-terminus of mature human SMAC (SMAC peptide), was used as interaction partner in the protein-peptide interaction assay.
BIR3 domains (10 nM) were incubated with SMAC peptide (10 nM) in Assay Buffer (50 mM Tris, 120 mM NaCl, 0.1% BSA, 1 mM DTT, 0.05% TritonX100) for one hour at room temperature in the presence of inhibitiory compounds. The assay mixture was transferred to a strepatvidin coated plate and incubated for one hour at room temperature to allow binding of the biotinylated peptide and associated BIR3 domains to the plate. After several washing steps Eu labeled anti-GST antibody (e.g. Perkin Elmer DELFIA Eu-N1-antiGST AD0250) was added to detect BIR3 domain-SMAC peptide interactions according to Perkin Elmer's instructions. […] Time resolved Europium fluoresecence was measured in a Wallac Victor using Standard assay settings.
DELFIA assay results were plotted against compound concentrations and Software GraphPad Prizm was used to calculate half maximal inhibitory concentrations (IC50 values).

T2 sequence (Q13490 256-363): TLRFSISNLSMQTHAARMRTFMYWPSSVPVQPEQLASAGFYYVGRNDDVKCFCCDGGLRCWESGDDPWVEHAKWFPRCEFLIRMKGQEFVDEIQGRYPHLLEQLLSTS
T1 sequence (P98170 241-356): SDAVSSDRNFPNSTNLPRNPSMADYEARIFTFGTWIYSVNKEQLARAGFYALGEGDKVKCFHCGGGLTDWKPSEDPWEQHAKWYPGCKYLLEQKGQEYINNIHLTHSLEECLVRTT

| IC50 (XIAP BIR3) [nM] | IC50 (cIAP1 BIR3) [nM] | Compound |
| --- | --- | --- |
| 107 | 1 | CNC(C)C(=O)Nc1ccc(-c2c(C)nc3ccccn23)c(C#Cc2ccc3cnn(C)c3c2)n1 (stereo not shown) [Example 49, 2-(methylamino)-N-[5-(2-methylimidazo[1,2-a]pyridin-3-yl)-6-[2-(1-methylindazol-6-yl)-ethynyl]pyridin-2-yl]propan-amide] |
| 95 | 1 | CNC(C)C(=O)Nc1ccc(-c2c(C)nc3ccccn23)c(C#Cc2cc3ccncc3s2)n1 (stereo not shown) [Example 50, 2-(methylamino)-N-[5-(2-methylimidazo[1,2-a]pyridin-3-yl)-6-(2-thieno[2,3-c]pyridin-2-ylethynyl)pyridin-2-yl]propan-amide] |
| 145 | 1 | CNC(C)C(=O)Nc1ccc(-c2c(C)nc3ccccn23)c(C#Cc2ccc3occc3c2)n1 (stereo not shown) [Example 52, N-[6-[2-(1-benzofuran-5-yl)-ethynyl)-5-(2-methyl-imidazo[1,2-a]pyridin-3-yl)-pyridin-2-yl]-2-(methylamino)-propanamide] |
| 116 | 1 | CNC(C)C(=O)Nc1ccc(-c2c(C)nc3ccccn23)c(C#Cc2ccc3c(c2)COC3)n1 (stereo not shown) [Example 53, N-[6-[2-(1,3-dihydro-2-benzofuran-5-yl)ethynyl]-5-(2-methylimidazo[1,2-a]pyridin-3-yl)pyridin-2-yl]-2-(methyl-amino)propanamide] |
| 863 | 1 | CNC(C)C(=O)Nc1ccc(-c2c(C)nc(N3CCOCC3)nc2C)c(C#Cc2ccc3ncccc3c2)n1 (stereo not shown) [Example 54, N-[5-(4,6-dimethyl-2-morpholin-4-ylpyrimidin-5-yl)-6-(2-quinolin-6-ylethynyl)-pyridin-2-yl]-2-(methylamino)-propanamide] |
| 224 | 5 | CNC(C)C(=O)Nc1ccc(-c2c(C)nc3ccccn23)c(C#Cc2nn(C)c3ncccc23)n1 (stereo not shown) [Example 58, 2-(methylamino)-N-[5-(2-methylimidazo[1,2-a]pyridin-3-yl)-6-[2-(1-methylpyrazolo[3,4-b]pyridin-3-yl)ethynyl]pyridin-2-yl]propanamide] |
| 184 | 2 | CNC(C)C(=O)Nc1ccc(-c2c(C)nc3ccccn23)c(C#Cc2cnc3ccccn23)n1 (stereo not shown) [Example 60, N-[6-(2-imidazo[1,2-a]pyridin-3-ylethynyl)-5-(2-methyl-imidazo[1,2-a]pyridin-3-yl)-pyridin-2-yl]-2-(methylamino)-propanamide] |
| 187 | 5 | CNC(C)C(=O)Nc1ccc(-c2c(C)nc3ccccn23)c(C#Cc2nn(C)c3ccccc23)n1 (stereo not shown) [Example 61, 2-(methylamino)-N-[5-(2-methylimidazo[1,2-a]pyridin-3-yl)-6-[2-(1-methylindazol-3-yl)-ethynyl]pyridin-2-yl]propan-amide] |
| 70 | 1 | CNC(C)C(=O)Nc1ccc(-c2c(C)nc3ccccn23)c(C#Cc2ccc(C(N)=O)cc2)n1 (stereo not shown) [Example 63, 4-[2-[6-[[2-(methylamino)-propanoyl]amino]-3-(2-methyl-imidazo[1,2-a]pyridin-3-yl)-pyridin-2-yl]ethynyl]benzamide] |
| 152 | 1 | CNC(C)C(=O)Nc1ccc(-c2c(-c3ccncc3)nc3cc(C)ccn23)c(C#Cc2ccc3nc(C)ccc3c2)n1 (stereo not shown) [Example 64, 2-(methylamino)-N-[5-(7-methyl-2-pyridin-4-ylimidazo[1,2-a]pyridin-3-yl)-6-[2-(2-methylquinolin-6-yl)-ethynyl]pyridin-2-yl]propan-amide] |
| 252 | 1 | CNC(C)C(=O)Nc1ccc(-c2c(C)nc3ccccn23)c(C#Cc2ccc3c(c2)CC(=O)N3C)n1 (stereo not shown) [Example 66, 2-(methylamino)-N-[5-(2-methyliniidazo[1,2-a]pyridin-3-yl)-6-[2-(1-methyl-2-oxo-3H-indol-5-yl)ethynyl]pyridin-2-yl]-propanamide] |

— US8859541B2, “6-alkynylpyridines” (Boehringer Ingelheim International GmbH, priority 2012, dated 2014)
